Experiments:
CpCDPK1 = biological target: T1, CpCDPK1 (Cryptosporidium parvum, UniProt A3FQ16); assay: Enzyme inhibition assay, CpCDPK1; assay type: biochemical; conditions: IC50 against CpCDPK1 (nM), stated for both parasite CDPK1s
T1 sequence (A3FQ16 1-538): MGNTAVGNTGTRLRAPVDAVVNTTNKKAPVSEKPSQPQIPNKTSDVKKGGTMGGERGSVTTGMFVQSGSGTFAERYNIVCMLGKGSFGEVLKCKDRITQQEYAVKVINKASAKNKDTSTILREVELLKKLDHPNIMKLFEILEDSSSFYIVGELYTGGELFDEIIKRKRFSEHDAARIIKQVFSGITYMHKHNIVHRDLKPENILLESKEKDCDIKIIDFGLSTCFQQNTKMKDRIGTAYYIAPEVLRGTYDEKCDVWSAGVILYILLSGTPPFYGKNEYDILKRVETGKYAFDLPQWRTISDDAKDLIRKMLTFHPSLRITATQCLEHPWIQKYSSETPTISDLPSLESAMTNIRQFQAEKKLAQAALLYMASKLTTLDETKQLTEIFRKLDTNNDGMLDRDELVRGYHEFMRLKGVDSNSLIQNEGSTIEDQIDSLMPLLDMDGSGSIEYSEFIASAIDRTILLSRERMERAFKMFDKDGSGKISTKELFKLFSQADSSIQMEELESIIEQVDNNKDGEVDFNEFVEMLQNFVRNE

Abl = Abl (Homo sapiens, UniProt P00519); assay: Human kinase inhibition, Abl; assay type: biochemical; conditions: parasite CDPK1s versus human Src or Abl
Abl, sequence (P00519 whole entry): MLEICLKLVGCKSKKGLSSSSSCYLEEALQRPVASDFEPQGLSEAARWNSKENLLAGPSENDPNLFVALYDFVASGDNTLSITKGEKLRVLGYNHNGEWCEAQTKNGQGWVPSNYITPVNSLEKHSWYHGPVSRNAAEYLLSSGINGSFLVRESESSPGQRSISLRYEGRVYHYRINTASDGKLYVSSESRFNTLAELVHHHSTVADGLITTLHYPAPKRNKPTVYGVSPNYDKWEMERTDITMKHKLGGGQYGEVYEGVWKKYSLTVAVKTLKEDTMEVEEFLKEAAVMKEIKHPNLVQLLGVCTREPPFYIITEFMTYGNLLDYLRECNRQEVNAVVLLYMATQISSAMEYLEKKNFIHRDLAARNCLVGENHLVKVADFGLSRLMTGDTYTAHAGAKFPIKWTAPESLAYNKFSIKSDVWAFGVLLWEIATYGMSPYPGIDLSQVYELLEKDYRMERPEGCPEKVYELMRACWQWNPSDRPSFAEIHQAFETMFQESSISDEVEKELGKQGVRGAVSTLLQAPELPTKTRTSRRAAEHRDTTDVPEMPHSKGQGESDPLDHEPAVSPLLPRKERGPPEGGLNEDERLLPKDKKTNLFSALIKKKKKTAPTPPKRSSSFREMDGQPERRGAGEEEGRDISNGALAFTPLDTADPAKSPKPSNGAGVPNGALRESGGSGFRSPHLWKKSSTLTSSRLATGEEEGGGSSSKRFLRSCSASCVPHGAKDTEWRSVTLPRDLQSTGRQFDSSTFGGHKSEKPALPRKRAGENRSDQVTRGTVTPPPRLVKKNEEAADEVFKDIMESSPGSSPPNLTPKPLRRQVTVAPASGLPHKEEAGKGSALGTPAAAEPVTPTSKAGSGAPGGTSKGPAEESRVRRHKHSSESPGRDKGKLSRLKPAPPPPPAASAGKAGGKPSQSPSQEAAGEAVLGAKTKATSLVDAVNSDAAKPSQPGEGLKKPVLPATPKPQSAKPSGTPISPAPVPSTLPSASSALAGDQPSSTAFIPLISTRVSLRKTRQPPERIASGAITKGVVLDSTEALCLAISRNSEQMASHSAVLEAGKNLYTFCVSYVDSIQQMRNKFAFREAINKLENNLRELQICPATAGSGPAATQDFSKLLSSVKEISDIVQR

Row | SMILES | IC50 (CpCDPK1) | selectivity index over human Src or Abl (Abl)
1 | Nc1nc2ccc(C(=O)c3ccccc3)cc2n1CCC1CCNCC1 [7c] | < 50 nM | > 200 fold
2 | CN1CCN(CCn2c(N)nc3ccc(C(=O)c4ccccc4)cc32)CC1 [7p] | < 50 nM | > 200 fold

Reference: publication PMC3420979 (Bioorganic & medicinal chemistry letters, 2012)
